For 5 molecules, Activity, IC50 and inhibition results are on record in ChEMBL document CHEMBL3046183, “2,4,6-Trihydroxybenzaldehyde as a potent antidiabetic agent alleviates postprandial hyperglycemia in normal and diabetic rats” (Med Chem Res, 2011).

The subject of experiment [1] is Rattus norvegicus. In words: Antihyperglycemic activity in maltose treated Rattus norvegicus Sprague-Dawley (rat) assessed as reduction of postprandial blood glucose level at 50 mg/kg administered intragastrically immediately after maltose load after 2 hr. The format is functional, organism-based. Also noted: dose 50 mg/kg.
In experiment [2] the test system is Rattus norvegicus. In words: Antihyperglycemic activity in glucose treated Rattus norvegicus Sprague-Dawley (rat) assessed as reduction of postprandial blood glucose level at 50 mg/kg administered intragastrically immediately after glucose load after 30 min (reference value: 95.7 to 182.3 mg/dl). The format is functional. The conditions noted are these: route intragastric.

The subject of experiment [3] is Rattus norvegicus. Put plainly: Antidiabetic activity in maltose loaded Rattus norvegicus Sprague-Dawley (rat) streptozotocin-induced diabetic model assessed as reduction of blood glucose level at 50 mg/kg administered intragastrically immediately after maltose load after 2 hr. The format is functional, organism-based. Set-up: dose 50 mg/kg.
For experiment [4], the system named is Rattus norvegicus. Put plainly: Antidiabetic activity in Rattus norvegicus Sprague-Dawley (rat) streptozotocin-induced diabetic model assessed as reduction of blood glucose level at 50 mg/kg administered intragastrically after 30 min (reference value: 378.2 to 594.7 mg/dl). The conditions noted are these: route intragastric. The class given is functional.
Experiment [5] can be described thus: Inhibition of alpha-glucosidase (unknown origin) using PNPG as substrate assessed as p-nitrophenol release from substrate after 30 min. Set-up: species or system Homo sapiens.
Experiment [6] relates to Rattus norvegicus. In words: Antidiabetic activity in Rattus norvegicus Sprague-Dawley (rat) streptozotocin-induced diabetic model assessed as reduction of blood glucose level at 20 mg/kg administered intragastrically after 30 min (reference value: 378.2 to 594.7 mg/dl). The class given is functional. The following applies: route intragastric.
The species named for a further experiment is Homo sapiens. Put plainly: Noncompetitive inhibition of alpha-glucosidase (unknown origin) using PNPG as substrate by Lineweaver-Burk plot analysis.
In experiment [7] the test system is Radical scavenging activity. Put plainly: Antioxidant activity assessed as DPPH radical scavenging activity after 30 min. The format is functional.
Experiment [8] relates to Rattus norvegicus. Put plainly: Antihyperglycemic activity in glucose treated Rattus norvegicus Sprague-Dawley (rat) assessed as reduction of postprandial blood glucose level at 20 mg/kg administered intragastrically immediately after glucose load after 30 min (reference value: 95.7 to 182.3 mg/dl). The class given is functional. The following applies: route intragastric.

Experiment [9] has as its system Rattus norvegicus. Put plainly: Antidiabetic activity in maltose loaded Rattus norvegicus Sprague-Dawley (rat) streptozotocin-induced diabetic model assessed as reduction of blood glucose level at 20 mg/kg administered intragastrically immediately after maltose load after 2 hr. Also noted: dose 20 mg/kg. The class given is functional, organism-based.
Experiment [10] concerns Rattus norvegicus. Put plainly: Antihyperglycemic activity in maltose treated Rattus norvegicus Sprague-Dawley (rat) assessed as reduction of postprandial blood glucose level at 20 mg/kg administered intragastrically immediately after maltose load after 2 hr. The format is functional, organism-based. Set-up: dose 20 mg/kg.

Active and inactive are the calls of the source. The calls are words filed in the database; no cut-off is given here.

For the molecule `C[C@H]1O[C@H](O[C@H]2[C@H](O)[C@@H](O)[C@@H](O[C@H]3[C@H](O)[C@@H](O)C(O)O[C@@H]3CO)O[C@@H]2CO)[C@H](O)[C@@H](O)[C@@H]1N[C@H]1C=C(CO)[C@@H](O)[C@H](O)[C@H]1O` (some centres undefined) [ACARBOSE], the result in the experiment with Rattus norvegicus [1] and with Rattus norvegicus [3] was Active. Also, the Activity in the experiment on Rattus norvegicus [2] came out at 97.5 mg/dL; in the experiment with Rattus norvegicus [4], 372.1 mg/dL.
As to `O=C(O)c1cc(O)c(O)c(O)c1` [GALLIC ACID], the 50% inhibitory concentration (IC50) in experiment [5] worked out at 112 µM.
For the molecule `O=Cc1c(O)cc(O)cc1O` [PHLOROGLUCINALDEHYDE], the results for the Activity with Rattus norvegicus [6] and with Rattus norvegicus [8] were 367.9 mg/dL and 96.5 mg/dL, respectively. Moreover, in the experiment listed under Homo sapiens, the inhibition entry is “Active”. Further, the IC50 in experiment [5] was 4.6 µM; in experiment [7] it was 71.4 µM. Further, the outcome with Rattus norvegicus [9] and in the experiment on Rattus norvegicus [10] was inactive.
`COc1cc(OC)c(C=O)c(OC)c1` [2,4,6-TRIMETHOXYBENZALDEHYDE]: in experiment [5], the half-inhibitory concentration (IC50) was determined as 2380 µM.
Consider `O=C(OC[C@H]1O[C@@H](OC(=O)c2cc(O)c(O)c(O)c2)[C@H](OC(=O)c2cc(O)c(O)c(O)c2)[C@@H](OC(=O)c2cc(O)c(O)c(O)c2)[C@@H]1OC(=O)c1cc(O)c(O)c(O)c1)c1cc(O)c(O)c(O)c1` [PENTAGALLOYL GLUCOSE], for which, in experiment [5], the IC50 is 0.39 µM.

As a reminder, the IC50 is the midpoint of a concentration-inhibition curve.
